The text below walks through data of article PMC4939597, “Mechanism for insulin-like peptide 5 distinguishing the homologous relaxin family peptide receptor 3 and 4” (Scientific Reports, 2016).

In assay [1] the target is T1, human RXFP4 (Homo sapiens, UniProt Q8TDU9).
T1 construct: expressed in transfected cells; host or cells: HEK293T
In words: Receptor binding assay, competition with NanoLuc-conjugated R3/I5 tracer. Conditions: lower than wild-type R3/I5. As for the experimental part:
(§1) Figure 3 Receptor binding activities of the mature INSL5 and R3/I5 mutants towards RXFP3 and RXFP4. A NanoLuc-conjugated R3/I5 peptide was used as tracer and HEK293T cells transiently overexpressing human RXFP3 or human RXFP4 were used as receptor source. The tracer concentration used in these assays was 0.5 nM. The nonspecific binding was obtained by competition with 1.0 μM of relaxin-3. The measured data were expressed as mean ± SE (n = 3) and fitted to sigmoidal curves using the software SigmaPlot 10.0.
(§2) The receptor binding assays of the mature INSL5 and R3/I5 mutants were carried out using a NanoLuc-conjugated R3/I5 peptide as tracer and the human embryonic kidney (HEK) 293T cells transiently overexpressing human RXFP3 or human RXFP4 as receptor source. Nonspecific binding was obtained by competition with 1.0 μM of human relaxin-3. Briefly, HEK293T cells were transiently transfected with the expression construct of human RXFP3 or human RXFP4. Next day, the transfected cells were trypsinised, seeded into a 96-well plate, and continuously cultured for 24–36 h to confluence. To start binding assay, the medium was removed and the binding solution (serum-free DMEM medium plus 1% bovine serum albumin) containing 0.5 nM of the NanoLuc-conjugated R3/I5 tracer and varied concentrations of competitor was added (100 μl/well). After incubation at 21 °C for 2 h, the binding solution was removed and the cells were washed twice by ice-cold phosphate-buffered saline (200 μl/well for each wash). Thereafter, the cells were lysed by lysis solution (100 μl/well, from Promega, Madison, WI, USA) and the cell lysate was transferred to a white opaque 96-well plate (50 μl/well). After mixing with the freshly diluted substrate (50 μl/well), bioluminescence was immediately measured on a SpectraMax M5 plate reader (Molecular Devices, Sunnyvale, CA, USA) using the luminescence mode. The measured bioluminescence data were expressed as mean ± SE (n = 3) and fitted to sigmoidal curves using the SigmaPlot10.0 software.

Assay [2] has as its target T2, human RXFP3 (Homo sapiens, UniProt Q9NSD7).
T2 construct: expressed in transfected cells; host or cells: HEK293T
T2 sequence (Q9NSD7 1-469): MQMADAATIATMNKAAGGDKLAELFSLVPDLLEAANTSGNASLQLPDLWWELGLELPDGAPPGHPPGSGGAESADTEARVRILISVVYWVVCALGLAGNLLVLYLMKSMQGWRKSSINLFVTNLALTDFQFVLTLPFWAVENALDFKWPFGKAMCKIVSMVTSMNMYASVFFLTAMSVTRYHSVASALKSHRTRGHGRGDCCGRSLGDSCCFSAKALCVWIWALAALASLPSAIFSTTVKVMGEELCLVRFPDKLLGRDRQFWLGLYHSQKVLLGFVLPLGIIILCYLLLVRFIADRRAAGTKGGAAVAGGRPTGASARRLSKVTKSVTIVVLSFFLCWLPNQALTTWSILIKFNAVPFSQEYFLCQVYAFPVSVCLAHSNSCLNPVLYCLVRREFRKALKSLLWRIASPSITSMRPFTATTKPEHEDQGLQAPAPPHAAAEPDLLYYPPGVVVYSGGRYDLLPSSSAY
In words: Receptor activation assay, CRE-controlled NanoLuc reporter. Conditions: for fold lower activation potency towards RXFP3 compared with wild-type R3/I5: lower than wild-type R3/I5. It is filed as cell-based. As for the experimental part: (§3) Figure 4 Receptor activation activities of the mature INSL5 and R3/I5 mutants towards RXFP3 and RXFP4. HEK293T cells transiently cotransfected by human RXFP3 or human RXFP4 and a CRE-controlled NanoLuc reporter were used for the activation assays. The measured data were expressed as mean ± SE (n = 3) and fitted to sigmoidal or linear curves using the software SigmaPlot 10.0.
(§4) The receptor activation assays of the mature INSL5 and R3/I5 mutants were carried out using a cAMP-response element (CRE)-controlled NanoLuc reporter according to our previous procedure. Briefly, HEK293T cells were transiently cotransfected with the expression construct of human RXFP3 or human RXFP4 and the CRE-controlled NanoLuc reporter vector pNL1.2/CRE. Next day, the transfected cells were trypsinised, seeded into a 96-well plate, and continuously cultured for 24–36 h to ~90% confluence. To start activation assay, the medium was removed and the activation solution (serum-free DMEM medium plus 1% bovine serum albumin) containing 1.0 μM of forskolin and varied concentrations of peptide was added (100 μl/well). After being continuously cultured at 37 °C for 4 h, the activation solution was removed and the cells were lysed by lysis solution (100 μl/well, from Promega). The cell lysate was then transferred to a white opaque 96-well plate (50 μl/well), mixed with the freshly diluted substrate (50 μl/well), and bioluminescence was immediately measured on a SpectraMax M5 plate reader (Molecular Devices) using the luminescence mode. The measured bioluminescence data were expressed as mean ± SE (n = 3) and fitted to sigmoidal or linear curves using the SigmaPlot10.0 software.

The target of assay [3] is T1, human RXFP4. The description is as above. It is filed as cell-based. Conditions: lower than wild-type R3/I5. As for the experimental part:
as §3, §4

Assay [4] addresses T2, human RXFP3. In words: Receptor binding assay, competition with NanoLuc-conjugated R3/I5 tracer. Particulars: lower than wild-type R3/I5. As for the experimental part: as §1, §2

T1 sequence (Q8TDU9 whole entry): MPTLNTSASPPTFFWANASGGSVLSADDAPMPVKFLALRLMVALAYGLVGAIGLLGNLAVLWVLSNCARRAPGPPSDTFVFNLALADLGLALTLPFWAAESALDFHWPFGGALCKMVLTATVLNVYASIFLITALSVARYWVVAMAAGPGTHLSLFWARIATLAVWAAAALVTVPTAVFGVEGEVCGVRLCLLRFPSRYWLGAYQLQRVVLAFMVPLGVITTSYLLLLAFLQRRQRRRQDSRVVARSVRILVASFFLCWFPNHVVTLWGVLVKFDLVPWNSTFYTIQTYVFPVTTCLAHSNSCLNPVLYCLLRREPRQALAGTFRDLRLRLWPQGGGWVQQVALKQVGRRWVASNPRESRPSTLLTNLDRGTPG

For the molecule `CC[C@H](C)[C@@H]1NC(=O)[C@H](Cc2ccccc2)NC(=O)[C@H](CCC(=O)O)NC(=O)[C@H](CCCNC(=N)N)NC(=O)CNC(=O)[C@@H](NC(=O)[C@H](CC(C)C)NC(=O)[C@H](CCCCN)NC(=O)[C@@H](NC(=O)CNC(=O)[C@H](Cc2ccc(O)cc2)NC(=O)[C@@H]2CCCN2C(=O)[C@H](C)NC(=O)[C@H](C)NC(=O)[C@@H](N)CCCNC(=N)N)C(C)C)CSSC[C@@H]2NC(=O)[C@@H](NC(=O)[C@H](CC(C)C)NC(=O)[C@@H](NC(=O)[C@H](CCC(N)=O)NC(=O)[C@H](CC(C)C)NC(=O)[C@H](CC(=O)O)NC(=O)[C@@H](N)CCC(N)=O)[C@@H](C)O)CSSC[C@H](NC(=O)CNC(=O)[C@H](CC(=O)O)NC(=O)[C@H]([C@@H](C)O)NC2=O)C(=O)N[C@@H](CO)C(=O)N[C@@H](CCSC)C(=O)N[C@@H]([C@@H](C)O)C(=O)N[C@@H](CC(=O)O)C(=O)N[C@@H](CC(C)C)C(=O)N[C@@H](CO)C(=O)N[C@@H](C)C(=O)N[C@@H](CC(C)C)C(=O)N[C@H](C(=O)O)CSSC[C@@H](C(=O)NCC(=O)NCC(=O)N[C@@H](CO)C(=O)N[C@@H](CCCNC(=N)N)C(=O)N[C@@H](Cc2c[nH]c3ccccc23)C(=O)O)NC(=O)[C@H]([C@@H](C)O)NC(=O)[C@H](Cc2ccc(O)cc2)NC(=O)[C@H]([C@@H](C)CC)NC(=O)[C@H](C(C)C)NC(=O)[C@H](C)NC(=O)[C@H](CCCNC(=N)N)NC1=O` [[F(B20)Y]R3/I5], on human RXFP4 [1], the “fold lower binding potency towards RXFP4 compared with wild-type R3/I5” value is listed as ~ 3 fold. Besides, the “fold lower activation potency towards RXFP3 compared with wild-type R3/I5” value on human RXFP3 [2] is recorded as ~ 3 fold. Further, the “fold lower activation potency towards RXFP4 than wild-type R3/I5” value at human RXFP4 [3] is ~ 15 fold. Take `CC[C@H](C)[C@@H]1NC(=O)[C@H](Cc2ccccc2)NC(=O)[C@H]([C@@H](C)CC)NC(=O)[C@H](C(C)C)NC(=O)[C@H]([C@@H](C)O)NC(=O)[C@H](CCCNC(=N)N)NC(=O)[C@H]([C@@H](C)CC)NC(=O)[C@H](Cc2ccc(O)cc2)NC(=O)[C@H](CCC(=O)O)NC(=O)[C@H](CCCNC(=N)N)NC(=O)CNC(=O)[C@@H](NC(=O)[C@H](CC(C)C)NC(=O)[C@H](CCCNC(=N)N)NC(=O)[C@@H](NC(=O)[C@H](CO)NC(=O)[C@H](CCC(=O)O)NC(=O)[C@@H](N)CCCCN)C(C)C)CSSC[C@@H]2NC(=O)[C@@H](NC(=O)[C@H](CC(C)C)NC(=O)[C@@H](NC(=O)[C@H](CCC(N)=O)NC(=O)[C@H](CC(C)C)NC(=O)[C@H](CC(=O)O)NC(=O)[C@@H](N)CCC(N)=O)[C@@H](C)O)CSSC[C@H](NC(=O)CNC(=O)[C@H](CC(=O)O)NC(=O)[C@H]([C@@H](C)O)NC2=O)C(=O)N[C@@H](CO)C(=O)N[C@@H](CCSC)C(=O)N[C@@H]([C@@H](C)O)C(=O)N[C@@H](CC(=O)O)C(=O)N[C@@H](CC(C)C)C(=O)N[C@@H](CO)C(=O)N[C@@H](C)C(=O)N[C@@H](CC(C)C)C(=O)N[C@H](C(=O)O)CSSC[C@@H](C(=O)NCC(=O)NCC(=O)N[C@@H](CO)C(=O)N[C@@H](CCCNC(=N)N)C(=O)N[C@@H](Cc2c[nH]c3ccccc23)C(=O)O)NC1=O` [[L(B9)R,Y(B17)F,A(B20)G,S(B21)G]INSL5]: the “fold lower activation potency towards RXFP3 than relaxin-3” value on human RXFP3 [2] (lower than relaxin-3) was ~ 100 fold. With `CC[C@H](C)[C@@H]1NC(=O)[C@H](Cc2ccccc2)NC(=O)[C@H](CCC(=O)O)NC(=O)[C@H](CC(C)C)NC(=O)CNC(=O)[C@@H](NC(=O)[C@H](CC(C)C)NC(=O)[C@H](CCCCN)NC(=O)[C@@H](NC(=O)CNC(=O)[C@H](Cc2ccc(O)cc2)NC(=O)[C@@H]2CCCN2C(=O)[C@H](C)NC(=O)[C@H](C)NC(=O)[C@@H](N)CCCNC(=N)N)C(C)C)CSSC[C@@H]2NC(=O)[C@@H](NC(=O)[C@H](CC(C)C)NC(=O)[C@@H](NC(=O)[C@H](CCC(N)=O)NC(=O)[C@H](CC(C)C)NC(=O)[C@H](CC(=O)O)NC(=O)[C@@H](N)CCC(N)=O)[C@@H](C)O)CSSC[C@H](NC(=O)CNC(=O)[C@H](CC(=O)O)NC(=O)[C@H]([C@@H](C)O)NC2=O)C(=O)N[C@@H](CO)C(=O)N[C@@H](CCSC)C(=O)N[C@@H]([C@@H](C)O)C(=O)N[C@@H](CC(=O)O)C(=O)N[C@@H](CC(C)C)C(=O)N[C@@H](CO)C(=O)N[C@@H](C)C(=O)N[C@@H](CC(C)C)C(=O)N[C@H](C(=O)O)CSSC[C@@H](C(=O)NCC(=O)NCC(=O)N[C@@H](CO)C(=O)N[C@@H](CCCNC(=N)N)C(=O)N[C@@H](Cc2c[nH]c3ccccc23)C(=O)O)NC(=O)[C@H]([C@@H](C)O)NC(=O)[C@H](Cc2ccccc2)NC(=O)[C@H]([C@@H](C)CC)NC(=O)[C@H](C(C)C)NC(=O)[C@H](C)NC(=O)[C@H](CCCNC(=N)N)NC1=O` [[R(B12)L]R3/I5], on human RXFP3 [4], the “fold lower binding potency towards RXFP3 compared with wild-type R3/I5” value is on record as ~ 110 fold. Besides, the “fold lower activation potency towards RXFP3 compared with wild-type R3/I5” value at human RXFP3 [2] is on record as ~ 1600 fold. For `CC[C@H](C)[C@@H]1NC(=O)[C@H](Cc2ccccc2)NC(=O)[C@H](CCC(=O)O)NC(=O)[C@H](CCCNC(=N)N)NC(=O)CNC(=O)[C@@H](NC(=O)[C@H](CC(C)C)NC(=O)[C@H](CCCCN)NC(=O)[C@@H](NC(=O)CNC(=O)[C@H](CCC(=O)O)NC(=O)[C@@H]2CCCN2C(=O)[C@H](C)NC(=O)[C@H](C)NC(=O)[C@@H](N)CCCNC(=N)N)C(C)C)CSSC[C@@H]2NC(=O)[C@@H](NC(=O)[C@H](CC(C)C)NC(=O)[C@@H](NC(=O)[C@H](CCC(N)=O)NC(=O)[C@H](CC(C)C)NC(=O)[C@H](CC(=O)O)NC(=O)[C@@H](N)CCC(N)=O)[C@@H](C)O)CSSC[C@H](NC(=O)CNC(=O)[C@H](CC(=O)O)NC(=O)[C@H]([C@@H](C)O)NC2=O)C(=O)N[C@@H](CO)C(=O)N[C@@H](CCSC)C(=O)N[C@@H]([C@@H](C)O)C(=O)N[C@@H](CC(=O)O)C(=O)N[C@@H](CC(C)C)C(=O)N[C@@H](CO)C(=O)N[C@@H](C)C(=O)N[C@@H](CC(C)C)C(=O)N[C@H](C(=O)O)CSSC[C@@H](C(=O)NCC(=O)NCC(=O)N[C@@H](CO)C(=O)N[C@@H](CCCNC(=N)N)C(=O)N[C@@H](Cc2c[nH]c3ccccc23)C(=O)O)NC(=O)[C@H]([C@@H](C)O)NC(=O)[C@H](Cc2ccccc2)NC(=O)[C@H]([C@@H](C)CC)NC(=O)[C@H](C(C)C)NC(=O)[C@H](C)NC(=O)[C@H](CCCNC(=N)N)NC1=O` [[Y(B5)E]R3/I5], the “fold lower activation potency towards RXFP3 compared with wild-type R3/I5” value on human RXFP3 [2] is recorded as ~ 6 fold.
